Assay results: patent US20110028554A1, “PHARMACEUTICAL COMPOSITIONS COMPRISING DIIODOTHYRONINE AND THEIR THERAPEUTIC USE” (UNIVERSITE JOSEPH FOURIER, priority 2007, published 2011)
“Also recorded” adds a separate entry of the source.

Columns and labels:
[1] = Blood glucose in Goto-Kakizaki (GK) rats; assay type: in vivo; conditions: low dosage 2.5 μg/100 g BW, 10 days, n=5, p<0.01
Procedure: (§1) Rats were genetically obese normoglycemic (Zucker or Fa/Fa), 10-11 week-old diabetic rats (ZDF) or genetic non-overweight diabetic (type 2 diabetes) rats (Goto-Kakizaki (GK) model).
(§2) The day of the study, after a fasted period overnight (18 h), blood samplings will be taken in awake rats from the tail vein.
(§3) Glucose and 3-hydroxybutyrate (3-HB) were measured, enzymatically and non esterified fatty acid (NEFA) by colorimetric assay (Wako Chemicals).

[2] = Plasmatic concentrations of glucose, triglycerides, cholesterol, FFA and HDL on the day of sacrifice; assay type: in vivo, Wistar, Zucker and ZDF rats
Description: These measurements were done on venous blood of the rats the day of the sacrifice.
At the end of the experimental period, animals were sacrificed by decapitation, in order to avoid the well-known effects of general anesthetics on mitochondrial metabolism. Blood, samples were immediately collected and plasma was frozen for subsequent determination of serum metabolites and hormones. Liver, muscles and fat depots were quickly excised and weighed. Liver median lobe was rapidly freeze-clamped. Muscles (plantaris, soleus and gastrocnemius) were frozen in isopentane precooled in liquid nitrogen. Mesenteric fat consisted, of adipose tissue surrounding the gastro-intestinal tract from the gastro-oesophageal sphincter to the end of the rectum with special care taken in distinguishing and removing the pancreas. Retroperitoneal fat pad was taken as the distinct depot behind each kidney along the lumbar muscles. Epididymal fat consisted, of adipose tissue on top of the epididymis. For subcutaneous depot measurement, a rectangular piece of skin was taken on the right side of each animal from the median line of the abdomen between the spine and the right hip to the first rib. Interscapular brown adipose tissue was removed and dissected free from adjacent muscles and white adipose tissue. The heart ventricles, the right kidney and the spleen were also excised, weighed and frozen.
as §3
(§4) Triglycerides and cholesterol were measured by classical routine automate apparatus.

muscle mitochondria = assay: Muscle mitochondrial oxygen consumption (JO2) of treated Wistar rats; assay type: in vivo
Procedure: All measurements were performed using mitochondria (0.2 mg mitochondrial protein/ml) incubated with various substrates: • GM: glutamate/malate (5 mM/2.5 mM) • SR: succinate/rotenone (5 mM/5 μM), • GMS: glutamate/malate/succinate (5 mM/2.5 mM/5 mM), • Palm: palmitoyl carnitine (55 μM), • Octa: octanoyl carnitine (100 μM), • TMPD/AsC: TMPD/ascorbate (0.5 mM/0.5 mM), and • TMPD/AsC/DNP: TMPD/ascorbate/DNP (0.5 mM/0.5 mM/75 μM).
JO2 was recorded in the presence of the substrate and following the addition of 1 mM ADP (state 3).
The oligomycin was added to the mitochondrial suspension to determine the non-phosphorylating respiratory rate (state 4).
The major part of the liver and the red part of each quadriceps were rinsed, and chopped into isolation medium (250 mM sucrose, 20 mM Tris-HCl and 1 mM EGTA-Tris, pH 7.4). Nuclei and cell debris were removed, by centrifugation at 800 g for 10 min. Mitochondria were then isolated from the supernatant by spinning twice at 8,000 g for 10 minutes. The mitochondrial pellet was resuspended in 0.5 ml of isolation buffer and kept on ice. Mitochondrial protein was measured by the bicinchoninic acid method (Pierce, Rockford, Ill.). The final mitochondrial suspensions were maintained on ice and were used for measurements of oxygen consumption rate and reactive oxygen species (ROS) production.
The rate of mitochondrial oxygen consumption (JO2) was measured at 30° C. in an incubation chamber with a Clark-type O2 electrode filled with 2 ml of incubation medium (125 mM KCl, 10 mM Pi-Tris, 20 mM Tris-HCl, 0.1 mM EGTA, pH 7.2). All measurements were performed using mitochondria (1.0 or 0.2 mg mitochondrial protein/ml for liver and skeletal muscle) incubated either with various substrates: glutamate/malate (5 mM/2.5 mM) and succinate (5 mM), alone or in combination, palmitoyl carnitine (55 μM) and octanoyl carnitine (100 μM). For each substrate, JO2 was recorded in the presence of the substrate alone (State 2) and following the addition of 1 mM ADP (state 3). Oligomycin (1.25 μg/mg protein) was added to the mitochondrial suspension to determine the non-phosphorylating respiratory rate (state 4). The incubation medium was constantly stirred with a built-in electromagnetic stirrer and bar flea. The efficiency of the mitochondrial oxidative phosphorylation was assessed by the state 3/state 4 ratio which measures the degree of control imposed on oxidation by phosphorylation (respiratory control ratio, RCR).

[3] = Growth rate (body weight) of Wistar rats with subcutaneous continuous-release pellet; assay type: in vivo
Procedure: Adult male rat bred in the animal room facilities of Laboratory of Fundamental and Applied. Bioenergetics (Wistar strain) or purchased from Charles-River Laboratories, Domaine des oncins, L'ARBRESLE France [(genetically obese normoglycemic (Zucker or Fa/Fa) or diabetic (ZDF)] were caged individually in stainless steel hanging cages and maintained in a 22° C., 50±10% relative humidity and 12 h:12 h light:dark environment. All animals were fed ad libitum with a standard rat chow (Safe A04, Villemoisson, France) and tap water. Body mass and food intake were recorded twice/thrice a week and fresh food was provided, at the same time to ensure minimal disturbance to the animals' food, behavior.
Eight-week old rats (300 g±10 g) were anesthetized by simultaneous intraperitoneal injection of diazepam 4 mg/kg and ketamine 100 mg/kg. In order to maintain body temperature during the surgery (10 min), animals were placed on a warm blanket. After interscapular shaving, a small incision of 0.5 cm of the skin allows the subcutaneous implantation of a small pellet (containing rT3 or 3′,3-T2) with a 10-gauge precision trochar. The pellets, manufactured by Innovative Research of America (Sarasota, Fla., USA) are constituted of a biodegradable matrix that effectively and continuously release the active product in the animal.
3-5 diiodothyronine (3-5 T2) or 3-3′diiodothyronine (3-3′ T2) were used at different doses (5, 0.5, or 0.1 mg/pellet) were implanted in order to provide a continuous and constant drug delivery over 60 days (which represents 25 μg, 2.5 μg or 0.5 μg/day/100 g BW).

[4] = Blood parameters (glucose, HbA1c, insulin, cholesterol, triglycerides) in ZDF rats; assay type: in vivo, Zucker Diabetic fatty (ZDF) rats; conditions: high dosage 25 μg/100 g BW
Procedure: as §1, §2
The following biochemical parameters were analyzed: glycemia, insulinemia, HbA1c, TG and Cholesterol.
Insulin levels were determined with commercial kits (Linco Research).
as §3, §4

N[C@@H](Cc1cc(I)c(Oc2ccc(O)cc2)c(I)c1)C(=O)O [3,5-T2, 3,5-diiodothyronine]
Change in blood glucose concentration as compared to control animals [1]: −24±6% | Plasmatic glucose at the end of the treatment ([2]; non-diabetic Wistar rats, low dosage 2.5 μg/100 g BW): minor changes | Plasmatic glucose at the end of the treatment ([2]; non-diabetic Zucker rats, 25 μg/100 g BW): minor changes | Muscle mitochondrial respiration, non-phosphorylating (state 4), vs placebo (muscle mitochondria; high dosage 25 μg/100 g BW): failed to substantially affect | Muscle mitochondrial respiration, phosphorylating (state 3), vs placebo (muscle mitochondria; high dosage 25 μg/100 g BW): failed to substantially affect | Muscle mitochondrial respiration, non-phosphorylating (state 4), vs placebo (muscle mitochondria; low dosage 2.5 μg/100 g BW): failed to substantially affect | Muscle mitochondrial respiration, phosphorylating (state 3), vs placebo (muscle mitochondria; low dosage 2.5 μg/100 g BW): failed to substantially affect | Growth rate (body weight gain) vs placebo ([3]; high dosage 25 μg/100 g BW): did not show similar weight gain; also recorded: a biphasic curve was observed with a weight gain between the 10th and the 15th day | Growth rate (body weight gain) vs placebo ([3]; low dosage 2.5 μg/100 g BW): the body mass did not change | Plasmatic cholesterol at the end of the treatment vs placebo [4]: significantly lower | Plasmatic triglycerides at the end of the treatment vs placebo [4]: not different between the two groups | Glycated hemoglobin (HbA1c) ([4]; 4 weeks): significant decrease | Plasmatic insulin concentration ([4]; 4 weeks): maintenance of insulin concentration at a high level; also recorded: increasing plasmatic insulin concentration | Plasmatic glucose concentration ([4]; from week 1 over 4 weeks): dramatic decrease; also recorded: decreasing glucose concentration
